According to patent US7230002B2, “Dipeptidyl peptidase IV inhibitors; processes for their preparation and compositions thereof” (Glenmark Pharmaceuticals Ltd., priority 2004, dated 2007):
Structures can show the parent of a compound that is named as a salt.

biological target: T1, human recombinant Dipeptidyl peptidase IV enzyme (Homo sapiens, UniProt P27487); assay: In-vitro DPP-IV assay (cleavage of Gly-Pro-AMC); format: biochemical; conditions: at 300 nM, n = 3, read-out: DPP-IV inhibition, percent inhibition at 300 nM
T1 construct: purchased R & D Systems
T1 sequence (P27487 whole entry): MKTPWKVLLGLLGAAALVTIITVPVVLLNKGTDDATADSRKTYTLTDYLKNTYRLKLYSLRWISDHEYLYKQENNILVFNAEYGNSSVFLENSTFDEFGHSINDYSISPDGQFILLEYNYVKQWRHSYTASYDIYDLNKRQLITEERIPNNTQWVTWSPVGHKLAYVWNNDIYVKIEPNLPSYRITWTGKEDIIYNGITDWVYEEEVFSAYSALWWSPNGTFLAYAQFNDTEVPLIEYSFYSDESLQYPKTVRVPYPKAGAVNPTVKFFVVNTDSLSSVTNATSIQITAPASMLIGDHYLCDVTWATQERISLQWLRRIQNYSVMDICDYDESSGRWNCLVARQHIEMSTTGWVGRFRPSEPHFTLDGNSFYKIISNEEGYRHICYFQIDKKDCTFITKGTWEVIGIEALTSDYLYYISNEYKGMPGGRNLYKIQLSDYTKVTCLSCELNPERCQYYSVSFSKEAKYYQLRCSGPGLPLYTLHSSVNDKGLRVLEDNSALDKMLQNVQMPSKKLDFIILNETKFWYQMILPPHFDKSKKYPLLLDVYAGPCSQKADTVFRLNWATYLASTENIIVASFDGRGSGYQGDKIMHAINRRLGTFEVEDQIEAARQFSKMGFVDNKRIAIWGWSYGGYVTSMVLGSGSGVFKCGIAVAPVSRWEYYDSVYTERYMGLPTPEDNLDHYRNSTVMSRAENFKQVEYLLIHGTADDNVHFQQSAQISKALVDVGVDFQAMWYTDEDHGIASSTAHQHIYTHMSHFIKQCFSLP
Description: Protocol for In-Vitro DPP-IV Assay
DPPIV activity was determined by the cleavage rate of 7-amino-4-methyl coumarin (AMC) from synthetic substrate Glycyl-Prolyl-AMC. In brief, the assay was conducted by adding 10 ng of human recombinant Dipeptidyl peptidase IV enzyme (DPPIV, available commercially from R & D Systems) in 50 μl of the assay buffer (25 mM Tris, pH 7.4, 140 mM NaCl, 10 mM KCl, 1% BSA) to 96 well black flat bottom microtiter plates. The reaction was initiated by adding 50 μl of 100 μM substrate Gly-Pro-AMC. The incubation was carried out in the kinetic mode at 30° C. for 30 minutes. Fluorescence was measured using Fluorostar at excitation filter of 380 nm and emission filter of 460 nm). Test compounds and solvent controls were added as 1 μl additions. A standard curve of free amino methyl coumarin (AMC) was generated using 0–100 μM AMC in the assay buffer. The curve generated, which was linear was used for the interpolation of catalytic activity.
Test compounds dissolved in DMSO at 5–6 concentrations were tested in duplicate along with the solvent control and blank samples. Percent inhibition was calculated at each concentration with respect to the solvent control sample (no test compound added). IC50 values were calculated from 3 experiments using the prism software.

| inhibition at 0.3 µM [%] | SMILES |
| --- | --- |
| 17 | N#Cc1ccc(NCC2CCC(NCC(=O)N3CCSC3)C2)nc1 (stereo not drawn) [Example-2] |

same assay, conditions: n = 3, substrate Gly-Pro-AMC, 30° C., 30 minutes, read-out: DPP-IV inhibition IC50

| SMILES | IC50 [nM] |
| --- | --- |
| N#Cc1ccc(OC[C@H]2CC[C@@H](NCC(=O)N3CCC[C@H]3C#N)C2)cc1 [Example-47, (2S)-1-{2-[(3S,1R)-3-(4-Cyanophenoxymethyl)cyclopentylamino]acetyl}-pyrrolidine-2-carbonitrile] | 13.8 |
| N#Cc1ccc(NCC2CCC(NCC(=O)N3CCC[C@H]3C#N)C2)nc1 (mixture of isomers) [Example-3, 6-((1SR,3RS)-3-{2-[(2S)-2-Cyanopyrrolidin-1-yl]-2-oxoethylamino}cyclopentyl-methylamino)nicotinonitrile] | 6.29 |
| N#Cc1ccc(NCC2CCC(NCC(=O)N3CCC[C@H]3C#N)C2)nc1 (mixture of isomers) [Example-5, 6-((1SR,3RS)-3-{2-[(2S)-2-Cyanopyrrolidin-1-yl]-2-oxoethylamino}cyclopentyl-methylamino)nicotinonitrile maleate] | 10.3 |
| N#C[C@@H]1CCCN1C(=O)CNC1CCC(CNc2ncccn2)C1 (mixture of isomers) [Example-19, (2S)-1-{2-[(3SR,1RS)-3-(2-Pyrimidinylaminomethyl)cyclopentylamino)acetyl}-pyrrolidine-2-carbonitrile dihydrochloride] | 20 |
| N#C[C@@H]1CCCN1C(=O)CNC1CCC(CNc2ccc([N+](=O)[O-])c(Cl)c2)C1 (mixture of isomers) [Example-23, (2S)-1-{2-[(3SR,1RS)-3-(3-Chloro-4-nitroanilinomethyl)cyclopentylamino]acetyl}-pyrrolidine-2-carbonitrile] | 14.6 |
| N#Cc1ccc(NCC2CCC(NCC(=O)N3CSC[C@H]3C#N)C2)nc1 (mixture of isomers) [Example-16, (4S)-3-{2-(1SR,3RS)-3-[(5-Cyano-2-pyridylaminomethyl)cyclopentylamino]acetyl}-1,3-thiazolane-4-carbonitrile dihydrochloride] | 2.76 |
| N#C[C@@H]1CCCN1C(=O)CN[C@@H]1CC[C@H](CNc2ccc([N+](=O)[O-])cc2F)C1 [Example-25, (2S)-1-{2-[(1R,3S)-3-(2-Fluoro-4-nitroanilinmethyl)cyclopentylamino]acetyl}-pyrrolidine-2-carbonitrile] | 8.59 |
| N#Cc1ccc(NCC2C=CC(NCC(=O)N3CCC[C@H]3C#N)C2)nc1 (mixture of isomers) [Example-12] | 11.2 |
| N#C[C@@H]1CCCN1C(=O)CN[C@@H]1CC[C@H](CNc2ncccn2)C1 [Example-20, (2S)-1-{2-[(3S,1R)-3-(2-Pyrimidinylaminomethyl)cyclopentylamino)acetyl}-pyrrolidine-2-carbonitrile] | 41.3 |
| N#Cc1ccc(NCC2CCC(NCC(=O)N3CCC[C@H]3C#N)C2)nc1 (mixture of isomers) [Example-4, 6-((1SR,3RS)-3-{2-[(2S)-2-Cyanopyrrolidin-1-yl]-2-oxoethylamino}cyclopentyl-methylamino)nicotinonitrile dihydrochloride] | 10 |

Next, values leading:

| IC50 [nM] | SMILES |
| --- | --- |
| 11.6 | N#Cc1ccc(OC[C@@H]2CC[C@H](NCC(=O)N3CCC[C@H]3C#N)C2)cc1 [Example-46] |
| 35.9 | N#C[C@@H]1CCCN1C(=O)CNC1CCC(COc2ccc([N+](=O)[O-])cc2)C1 (mixture of isomers) [Example-43, (2S)-1-{2-[(3SR,1RS)-3-(4-Nitrophenoxymethyl)cyclopentylamino]acetyl}-pyrro-lidine-2-carbonitrile] |
| 26.1 | N#C[C@@H]1CCCN1C(=O)CN[C@H]1CC[C@@H](CSc2ccc(F)cc2)C1 [Example-34, (2S)-1-{2-[(1S,3R)-3-(4-Fluorophenylsulfanylmethyl)cyclopentylamino]acetyl}-pyrro-lidine-2-carbonitrile] |
| 78.7 | N#Cc1ccc(S(=O)(=O)CC2CCC(NCC(=O)N3CCC[C@H]3C#N)C2)nc1 (mixture of isomers) [Example-40, 6-((1SR,3RS)-3-{2-[(2S)-2-Cyanopyrrolidin-1-yl)-2-oxoethylamino}cyclopentyl-methylsulfonyl)nicotinonitrile] |
| 91.8 | N#C[C@@H]1CCCN1C(=O)CN[C@@H]1CC[C@H](CS(=O)(=O)c2ccccc2)C1 [Example-31, (2S)-1-{2-[(3S,1R)-3-Phenylsulfonylmethylcyclopentylamino]acetytl}-pyrrolidine-2-carbonitrile] |
| 10 | N#C[C@@H]1CCCN1C(=O)CNC1CCC(CS(=O)(=O)c2ccccc2)C1 (mixture of isomers) [Example-29] |
| 26.8 | N#C[C@@H]1CCCN1C(=O)CN[C@@H]1CC[C@H](CSc2nc3ccccc3[nH]2)C1 [Example-42, (2S)-1-{2-[(3S,1R)-3-(1H-Benzo[d]imidazol-2-ylsulfanylmethyl)cyclopentylamino]-acetyl}-pyrrolidine-2-carbonitrile] |
